Experimental data as given in patent publication US20170065564A1, “BIS-CYCLIC GUANIDINE COMPOUND COMPOSITIONS, METHODS OF USE AND TREATMENT THEREOF” (University of South Florida, priority 2014, published 2017).

What was measured:
[1] = test system: Staphylococcus aureus (USA300 strain FPR3757); test: Murine model of lethal peritonitis; type: in vivo, mice; conditions: 2× MIC, I.M., 1 h post-infection, six mice per group
Experimental: Using MRSA as a representative ESKAPE organism, we infected mice with 1×10^8 bacterial cells in 5% mucin via intraperitoneal injection. At 1 h post-infection, mice were then I.V. injected with either vancomycin (positive control), or I.M. with our front runner compounds.
Six mice per group were injected with 1×10^8 CFU ml^−1 of Staphylococcus aureus (USA300 strain FPR3757) in PBS containing 5% mucin. […] Mice were monitored twice daily for five days to assess mortality. The clinical endpoint of this study was when the mice reached a pre-moribund state. Characteristics of pre-moribund state include: hunched posture, rapid, shallow and/or labored breathing, ruffled fur, lethargy, failure to respond to stimuli, soiled anogenital area, paralysis, paresis, head tilt, circling, vocalizations, non-purposeful movements and/or were unable to eat or drink. Those mice reaching this state prior to the completion of the 5 day infection period were euthanized. The number of mice surviving between control and treatment groups was compared and analyzed for statistical significance using a log rank test.

P. aeruginosa [2] = test: MIC reanalysis in the presence of the efflux inhibitor reserpine; type: cell-based, Pseudomonas aeruginosa
Description: (§1) Given the minor variations observed in MIC for three of the Gram-negative organisms, and that these particular bacteria are renowned for efflux detoxification of antibacterial agents, we hypothesized that the differences observed likely relate to variation in efflux pump activity between strains. […] The effects observed appear to be universal, regardless of strain or compound tested. […] It should be noted that the data presented herein represents a worst-case scenario. […] Similar data was returned for all front runner agents, against all 10 isolates of the three Gram-negative organisms (data not shown). These findings support the hypothesis that inherent efflux mechanisms of certain Gram-negative organisms result in MIC variations for the lead bis-cyclic guanidines between clinical isolates.

E. cloacae = test: as above; type: cell-based, Enterobacter cloacae; conditions: E. cloacae strain 1446; with 100 μM of reserpine
Description: as §1

K. pneumoniae = test: as above; type: cell-based, Klebsiella pneumoniae; conditions: K. pneumoniae strain 1441; with 100 μM of reserpine
Description: as §1

P. aeruginosa [3] = type: cell-based, Pseudomonas aeruginosa; conditions: 8 passages, concentration doubled each day
Experimental: ESKAPE pathogens were grown overnight in liquid media at 37° C. These cultures were then diluted 1:100 in fresh media, and seeded into a 96-well plate. Lead bis-cyclic guanidines or control agents were added to respective wells at half MIC concentrations. […] These were then grown overnight, and the procedure repeated for a total of eight days.

SMILES	survival of infected mice over 5 day infection period [1]	increase in MIC after serial passage (P. aeruginosa [3]) [fold]	other results
CCCCCCCN1C(=N)N(CCCC[C@H]2CNC(=N)N2CCc2cccc(C(F)(F)F)c2)C[C@@H]1CCCC [Compound 1]	all mice survived		effect on growth, combined with reserpine (P. aeruginosa [2]; P. aeruginosa isolate 1420, 2 μM compound plus 100 μM reserpine): strongly inhibited growth; effect on growth, agent alone (P. aeruginosa [2]; P. aeruginosa isolate 1420, 100 μM of reserpine or 2 μM of compound 1 individually): no effect
CCCC[C@H]1CN(CCCC[C@H]2CNC(=N)N2CCc2cccc(C(F)(F)F)c2)C(=N)N1CCCCC1CCCCC1 [Compound 2, (S)-4-butyl-3-(4-cyclohexylbutyl)-1-(4-((S)-2-imino-3-(3-(trifluoromethyl)phenethyl)imidazolidin-4-yl)butyl)imidazolidin-2-imine]	only a single mouse succumbing to infection after the first day		
CCCCCCCN1C(=N)N(CCCC[C@H]2CNC(=N)N2CCc2cccc(C(F)(F)F)c2)C[C@@H]1CC1CCCCC1 [Compound 7]	1 mouse lost on each of days 2 and 4		effect on growth, in combination with reserpine (E. cloacae): complete inhibition of growth
CCCCCCCN1C(=N)N(CCCC[C@H]2CNC(=N)N2CCCCC2CCCCC2)C[C@@H]1CC1CCCCC1 [Compound 16]	only a single mouse succumbing to infection after the first day	8	effect on growth, in combination with reserpine (K. pneumoniae): complete inhibition of growth
CCCCCCCN1C(=N)N(CCCC[C@H]2CNC(=N)N2CCC23CC4CC(CC(C4)C2)C3)C[C@@H]1CCCC [Compound 19]	only a single mouse succumbing to infection after the first day	8	effect on growth, paired with reserpine (P. aeruginosa [2]; P. aeruginosa strain 1414, with reserpine): complete inhibition of growth
